Assay results from patent US8557875B2, “Gene transfer agent composition containing polyamidoamine dendron” (Public University Corporation Osaka Prefecture University, priority 2009, dated 2013).

Columns and labels:
NHDF-ad cells [1] = experiment: GFP expression after gene transfer with lipoplexes (Example 4); assay type: cell-based, human; details: GFP-expression plasmid
Procedure: A solvent was removed from each of chloroform solutions (1 mg/ml) of polyamidoamine dendrons (DL-G1 and DL-G1-U2) using a rotary evaporator to form 111.5 μg of lipid thin films. The thin films were dried in vacuo for 2 hours. Then, […] of phosphate buffered saline (PBS) were added. The mixtures were further sonicated for 2 minutes using a bath-type ultrasonicator to give 160 μl of lipid dispersion liquids. In addition, a solution (20 μg/ml, 160 μl) prepared by dissolving plasmid DNA in a 20 mM Tris-HCl buffer was added to each of the lipid dispersion liquids so as to obtain different N/P ratios. Then, the liquids were incubated at room temperature for 30 minutes to obtain lipoplexes.
pEGFP-C1 expressing a green fluorescent protein was used as a gene transfer plasmid, and NHDF-ad cells were used as target cells. Lipoplexes were prepared using, individually, DL-U2 and DL-G1. Then, gene transfer was performed.
NHDF-ad cells were seeded in a 24-well plate.
(§1) (NHDF-ad cells: 2.5×10^4 cells/well·DMEM+10% FBS (Pe/St) 500 μl)
(§2) (i) A 20 mM Tris-HCl (pH 7.4) buffer was dispensed into two tubes at, individually, 56.3 μl (for NP ratio=3) and 37.5 μl (for NP ratio=6).
(§3) (ii) 1.0 μg of plasmid DNA (pCAG-GFP) was added to each of the two tubes prepared in step (i) at 2 μl (1.0 μg), and the contents were stirred. […]

HeLa-S3 = experiment: Gene transfer (GFP expression, luciferase activity) versus commercial agents (Example 5); assay type: cell-based; details: HeLa-S3 adherent cells; compared with Lipofectamine LTX and FuGENE HD
Procedure: pEGFP-C1 expressing a green fluorescent protein was used as a gene transfer plasmid; and adherent cells COS-7 and Hela-S3, and non-adherent cells K562, which were established cell lines, were used as target cells. Lipoplexes were individually prepared using DL-U2. Then, gene transfer was performed.
(HeLa—S3 cells: 3×10^4 cells/well·DMEM+10% FBS (Pe/St) 500 μl)
(i) A 20 mM Tris-HCl (pH 7.4) buffer was dispensed into three tubes at 35.5 μl (for NP ratio=6) for each of two tubes, and 23 μl (for NP ratio=8) for the remaining tube.
(ii) 1.0 μg of plasmid DNA (pCAG-GFP) was added to each of the three tubes prepared in step (i) at 2 μl (1.0 μg), and the contents were stirred.
(iii) A DL-U2 liposome solution was added to the three tubes prepared in step (ii) at 37.5 μl (N/P ratio=6) for each of two tubes, and 50 μl (N/P ratio=8) for the remaining tube.
(iv) 25 μl of an Opti-MEM (registered trademark) I Reduced-Serum Medium was further added, and the whole was thoroughly mixed and allowed to stand at room temperature for 5 minutes.
100 μl of the DL-plasmid DNA complex solution (N/P ratio=6) was added and mixed with the HeLa—S3 cells. […]
(vii) 48 hours later, luciferase activity was measured according to the protocol of the luciferase assay system (Promega, E1501) (relative values based on the activity of LTX defined as 1 were graphed).

NHDF-ad cells [2] = experiment: Gene transfer (GFP expression, luciferase activity) versus commercial agents (Example 6); assay type: cell-based, human; details: single transfection, 48 hours
Procedure: pEGFP-C1 expressing a green fluorescent protein was used as a gene transfer plasmid; and NHDF-ad cells, which were normal […] cells derived from adult humans and also used for the production of iPS cells, were used as target cells. Lipoplexes were individually prepared using DL-U2. Then, gene transfer was performed.
as §1, §2, §3
(vii) 48 hours later, luciferase activity was measured according to the protocol of the luciferase assay system (Promega, E1501).
Lipofectamine LTX: Gene transfer was performed according to the protocol, and luciferase activity was measured according to the protocol of the luciferase assay system (Promega, E1501).
FuGENE HD: Gene transfer was performed according to the protocol, and luciferase activity was measured according to the protocol of the luciferase assay system (Promega, E1501).
FuGENE6: Gene transfer was performed according to the protocol, and luciferase activity was measured according to the protocol of the luciferase assay system (Promega, E1501).

gene transfer activity (HeLa-S3): excellent gene transfer activity
Structure (SMILES): CCCCCCCC/C=C\CCCCCCCCN(CCCCCCCC/C=C\CCCCCCCC)CCC(=O)NCCN(CCC(=O)NCCN)CCC(=O)NCCN (racemic) [DL-G1-U2]
gene transfer into NHDF-ad cells (NHDF-ad cells [1]): allowed the gene to be transferred
gene transfer (GFP gene) efficiency (NHDF-ad cells [2]): allowed the gene to be transferred into the cells at a remarkably high frequency
